Data: patent publication US20250320213A1, “Nitrogen-Containing Heterocyclic Compounds” (Pfizer Inc., priority 2024, published 2025)

Target: T1, STAT6 (Homo sapiens, UniProt P42226)
T1 construct: stably transfected HaCaT keratinocyte cell line, which expresses NanoLuc luciferase reporter gene under the transcriptional control of the STAT6 responsive promoter; endogenous in cells; host or cells: HaCaT keratinocyte reporter cell line (stably transfected with a NanoLuc reporter)
T1 sequence (P42226 1-847): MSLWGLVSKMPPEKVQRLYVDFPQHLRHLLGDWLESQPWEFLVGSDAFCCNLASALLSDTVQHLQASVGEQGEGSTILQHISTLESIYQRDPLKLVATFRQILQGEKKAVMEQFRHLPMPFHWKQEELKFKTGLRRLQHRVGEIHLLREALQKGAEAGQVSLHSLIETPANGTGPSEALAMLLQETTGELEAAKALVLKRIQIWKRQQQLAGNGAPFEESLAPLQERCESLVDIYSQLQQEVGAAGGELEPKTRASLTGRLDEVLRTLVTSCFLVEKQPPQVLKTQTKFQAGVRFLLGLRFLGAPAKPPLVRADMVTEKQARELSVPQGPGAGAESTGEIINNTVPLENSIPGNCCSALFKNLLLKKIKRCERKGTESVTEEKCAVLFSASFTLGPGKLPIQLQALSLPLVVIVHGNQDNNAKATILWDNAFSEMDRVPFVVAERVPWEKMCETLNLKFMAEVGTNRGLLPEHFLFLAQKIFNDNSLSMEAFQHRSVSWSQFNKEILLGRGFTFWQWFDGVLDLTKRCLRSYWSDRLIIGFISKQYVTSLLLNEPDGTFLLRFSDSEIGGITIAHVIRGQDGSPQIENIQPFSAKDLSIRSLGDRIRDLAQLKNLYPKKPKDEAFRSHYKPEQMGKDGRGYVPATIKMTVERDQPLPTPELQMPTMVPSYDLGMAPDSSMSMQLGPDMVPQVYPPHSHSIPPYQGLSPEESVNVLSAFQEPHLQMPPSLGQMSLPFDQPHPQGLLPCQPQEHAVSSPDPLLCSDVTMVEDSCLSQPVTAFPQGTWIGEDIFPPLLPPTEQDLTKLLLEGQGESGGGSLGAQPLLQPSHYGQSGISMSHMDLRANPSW
Test: STAT6 Reporter Luciferase Assay (IL-13 stimulated HaCaT keratinocyte NanoLuc reporter cells)
Type: cell-based
Settings: IL-13 stimulated HaCaT STAT6 NanoLuc reporter cells; read-out: Reporter EC50
Procedure: Pharmacological measurements of STAT6 transcriptional activity through the IL-13-IL-13 receptor/IL-4 receptor pathway were made with a stably transfected HaCaT keratinocyte cell line, which expresses NanoLuc luciferase reporter gene under the transcriptional control of the STAT6 responsive promoter for IL-13Ra2. The readout of the STAT6 activity utilized Promega Nano-Glo Luciferase assay kit.
The reporter cells were cultured in a growth media comprised of DMEM High Glucose, no calcium and no glutamine, 10% heat inactivated fetal bovine serum (HI FBS), 1% 100× Glutamax, and 100 U/mL Penicillin-Streptomycin (units of penicillin in 1 mL of streptomycin). Seven thousand cells were plated in 25 microliter (μL) per well in a 384-well, white bottom, tissue culture plate. Cells were cultured overnight at 37° C. The next day, test compounds (solubilized and serially diluted in DMSO, in an 11 point, 4-fold dilution series in duplicate) were spotted, 60 nanoliters (nL) per well, into a 384 well v-bottom polypropylene plate. Thirty μL per well of 37° C. dosing media (Dulbecco's modified eagle medium (DMEM) High Glucose, no calcium and no glutamine with 2% HI FBS) was added to the compound plate. Growth media was removed from the cell plate, and the cells were washed with DPBS. Twenty μL per well of compounds diluted in dosing media were transferred from the compound plate to the cell plate and the compounds were further diluted with an additional 15 μL of dosing media in the cell plate: the cell plate was incubated for two hours at 37° C. After two hours, STAT6 activity was stimulated with the addition of 5 μL per well of IL-13 (R&D Systems) in dosing media with a final concentration of 0.12 nM IL13. Cells were incubated at 37° C. for 4 hours to allow for reporter gene expression, then all media was removed from the plate. The cell plates were treated with assay buffer and Luciferase substrate from Nano-Glo Luciferase Assay Kit for 15 min and then measured for luminescence on an EnVision 2105 multilabel reader (PerkinElmer).

| EC50 [nM] | SMILES |
| --- | --- |
| 606 | CC(C)n1nc(C(=O)NCc2ccc(NC(=O)N(C)C)cc2)c2c1CCN(c1ccc(C(=O)N3C[C@H]4CCO[C@H]4C3)cn1)C2 (racemic) [Example 331, rac-N-(4-(3,3-dimethylureido)benzyl)-5-(5-((3aR,6aR)-hexahydro-2H-furo[2,3-c]pyrrole-5-carbonyl)pyridin-2-yl)-1-isopropyl-4,5,6,7-tetrahydro-1H-pyrazolo[4,3-c]pyridine-3-carboxamide] |
| 2800 | CO[C@@H]1CN(C(=O)c2ccc(N3CCc4c(c(C(=O)NCc5ccc(NC(=O)N(C)C)cc5)nn4C(C)C)C3)nc2)C[C@H]1OC (racemic) [Example 333, rac-5-(5-((3R,4R)-3,4-dimethoxypyrrolidine-1-carbonyl)pyridin-2-yl)-N-(4-(3,3-dimethylureido)benzyl)-1-isopropyl-4,5,6,7-tetrahydro-1H-pyrazolo[4,3-c]pyridine-3-carboxamide] |
| 176 | CC(C)n1nc(C(=O)NCc2ccc(NC(=O)N(C)C)cc2)c2c1CCN(c1ccc(C(=O)N3C[C@@H]4OC(=O)N(C)[C@@H]4C3)cn1)C2 (racemic) [Example 334, rac-N-(4-(3,3-dimethylureido)benzyl)-1-isopropyl-5-(5-((3aR,6aS)-3-methyl-2-oxohexahydro-2H-pyrrolo[3,4-d]oxazole-5-carbonyl)pyridin-2-yl)-4,5,6,7-tetrahydro-1H-pyrazolo[4,3-c]pyridine-3-carboxamide] |
| 0.4 | CC(C)n1nc(C(=O)NCc2ccc(NC(=O)N3CCN(C)CC3)cc2)c2c1C(C(F)(F)F)CN(c1ccc(C(=O)N(C)C)cn1)C2 (racemic) [Example 701, rac-(R)-5-(5-(dimethylcarbamoyl)pyridin-2-yl)-1-isopropyl-N-(4-(4-methylpiperazine-1-carboxamido)benzyl)-7-(trifluoromethyl)-4,5,6,7-tetrahydro-1H-pyrazolo[4,3-c]pyridine-3-carboxamide] |
| 1 | CC(C)n1nc(C(=O)NCc2ccc(NC(=O)N3CCN(C)CC3)cc2)c2c1C(C(F)(F)F)CN(c1ccc(C(=O)N(C)C)cc1)C2 (racemic) [Example 703, rac-(R)-5-(4-(dimethylcarbamoyl)phenyl)-1-isopropyl-N-(4-(4-methylpiperazine-1-carboxamido)benzyl)-7-(trifluoromethyl)-4,5,6,7-tetrahydro-1H-pyrazolo[4,3-c]pyridine-3-carboxamide] |
| 1 | CC(C)n1nc(C(=O)NCc2ccc(NC(=O)N3CCNCC3)cc2)c2c1C(C(F)(F)F)CN(c1ccc(C(=O)N(C)C)cc1)C2 (racemic) [Example 704, rac-(R)-5-(4-(dimethylcarbamoyl)phenyl)-1-isopropyl-N-(4-(piperazine-1-carboxamido)benzyl)-7-(trifluoromethyl)-4,5,6,7-tetrahydro-1H-pyrazolo[4,3-c]pyridine-3-carboxamide] |
| 1 | COCCC1(N)CCN(C(=O)Nc2ccc(CNC(=O)c3nn(C(C)C)c4c3CN(c3ccc(C(=O)N(C)C)cc3)C[C@@H]4C)cc2)C1 (single isomer, unassigned) [Example 670, (S)-N-(4-((R*)-3-amino-3-(2-methoxyethyl)pyrrolidine-1-carboxamido)benzyl)-5-(4-(dimethylcarbamoyl)phenyl)-1-isopropyl-7-methyl-4,5,6,7-tetrahydro-1H-pyrazolo[4,3-c]pyridine-3-carboxamide] |

More lines, now with the values behind:

| SMILES | EC50 [nM] |
| --- | --- |
| COCC1CCN(C(=O)c2ccc(N3CCc4c(c(C(=O)NCc5ccc(NC(=O)N(C)C)cc5)nn4C(C)C)C3)nc2)C1 (racemic) [Example 194, rac-(R)-N-(4-(3,3-dimethylureido)benzyl)-1-isopropyl-5-(5-(3-(methoxymethyl)pyrrolidine-1-carbonyl)pyridin-2-yl)-4,5,6,7-tetrahydro-1H-pyrazolo[4,3-c]pyridine-3-carboxamide] | 401 |
| CC(C)n1nc(C(=O)NCc2ccc(NC(=O)N(C)C)cc2)c2c1CCN(c1ccc(C(=O)N3CCC(O)C3)cn1)C2 (racemic) [Example 198, rac-(R)-N-(4-(3,3-dimethylureido)benzyl)-5-(5-(3-hydroxypyrrolidine-1-carbonyl)pyridin-2-yl)-1-isopropyl-4,5,6,7-tetrahydro-1H-pyrazolo[4,3-c]pyridine-3-carboxamide] | 210 |
| CC(C)n1nc(C(=O)NCc2ccc(NC(=O)N(C)C)cc2)c2c1CCN(c1ccc(C(=O)N3CCCC3CO)cn1)C2 (racemic) [Example 208, rac-(R)-N-(4-(3,3-dimethylureido)benzyl)-5-(5-(2-(hydroxymethyl)pyrrolidine-1-carbonyl)pyridin-2-yl)-1-isopropyl-4,5,6,7-tetrahydro-1H-pyrazolo[4,3-c]pyridine-3-carboxamide] | 535 |
| CC(C)n1nc(C(=O)NCc2ccc(NC(=O)N(C)C)cc2)c2c1CCN(c1ccc(C(=O)N3CCC(C)(O)C3)cn1)C2 (racemic) [Example 219, rac-(R)-N-(4-(3,3-dimethylureido)benzyl)-5-(5-(3-hydroxy-3-methylpyrrolidine-1-carbonyl)pyridin-2-yl)-1-isopropyl-4,5,6,7-tetrahydro-1H-pyrazolo[4,3-c]pyridine-3-carboxamide] | 1310 |
| CC(C)n1nc(C(=O)NCc2ccc(NC(=O)N(C)C)cc2)c2c1CCN(c1ccc(C(=O)N3CCCC(O)C3)cn1)C2 (racemic) [Example 220, rac-(R)-N-(4-(3,3-dimethylureido)benzyl)-5-(5-(3-hydroxypiperidine-1-carbonyl)pyridin-2-yl)-1-isopropyl-4,5,6,7-tetrahydro-1H-pyrazolo[4,3-c]pyridine-3-carboxamide] | 336 |
| CNC(=O)C1CCCN1C(=O)c1ccc(N2CCc3c(c(C(=O)NCc4ccc(NC(=O)N(C)C)cc4)nn3C(C)C)C2)nc1 (racemic) [Example 245, rac-(R)-N-(4-(3,3-dimethylureido)benzyl)-1-isopropyl-5-(5-(2-(methylcarbamoyl)pyrrolidine-1-carbonyl)pyridin-2-yl)-4,5,6,7-tetrahydro-1H-pyrazolo[4,3-c]pyridine-3-carboxamide] | 2090 |
| CC(C)n1nc(C(=O)NCc2ccc(NC(=O)N(C)C)cc2)c2c1CCN(c1ccc(C(=O)N3C[C@@H]4OC(=O)N[C@@H]4C3)cn1)C2 (racemic) [Example 290, rac-N-(4-(3,3-dimethylureido)benzyl)-1-isopropyl-5-(5-((3aR,6aS)-2-oxohexahydro-2H-pyrrolo[3,4-d]oxazole-5-carbonyl)pyridin-2-yl)-4,5,6,7-tetrahydro-1H-pyrazolo[4,3-c]pyridine-3-carboxamide] | 1410 |

Same assay, conditions: STAT6 NanoLuc luciferase reporter, IL-13 stimulated HaCaT keratinocyte cells; read-out: Reporter EC50

| EC50 [nM] | SMILES |
| --- | --- |
| 11 | CC(C)n1nc(C(=O)NCc2ccc(NC(=O)N3C[C@H]4CC[C@@H]3C4)cc2)c2c1CCN(c1ccc(C(=O)N(C)C)cn1)C2 (racemic) [Example 143, rac-N-(4-((1R,4S)-2-azabicyclo[2.2.1]heptane-2-carboxamido)benzyl)-5-(5-(dimethylcarbamoyl)pyridin-2-yl)-1-isopropyl-4,5,6,7-tetrahydro-1H-pyrazolo[4,3-c]pyridine-3-carboxamide] |
| 6 | CC(C)n1nc(C(=O)NCc2ccc(NC(=O)N3CCC(C(F)F)C3)cc2)c2c1CCN(c1ccc(C(=O)N(C)C)cn1)C2 (racemic) [Example 145, rac-(R)-N-(4-(3-(difluoromethyl)pyrrolidine-1-carboxamido)benzyl)-5-(5-(dimethylcarbamoyl)pyridin-2-yl)-1-isopropyl-4,5,6,7-tetrahydro-1H-pyrazolo[4,3-c]pyridine-3-carboxamide] |
